According to ChEMBL document CHEMBL1142886, “Substrate specificity analysis and inhibitor design of homoisocitrate dehydrogenase” (Bioorg Med Chem, 2007):

Experiments:
[1] = Inhibition of Deinococcus radiodurans homoisocitrate dehydrogenase
[2] = target: Homoisocitrate dehydrogenase, mitochondrial (Saccharomyces cerevisiae S288c, UniProt P40495); assay: Inhibition of Saccharomyces cerevisiae homoisocitrate dehydrogenase expressed in Escherichia coli Rosetta cells above 10 mM
Homoisocitrate dehydrogenase, mitochondrial, sequence (P40495 whole entry): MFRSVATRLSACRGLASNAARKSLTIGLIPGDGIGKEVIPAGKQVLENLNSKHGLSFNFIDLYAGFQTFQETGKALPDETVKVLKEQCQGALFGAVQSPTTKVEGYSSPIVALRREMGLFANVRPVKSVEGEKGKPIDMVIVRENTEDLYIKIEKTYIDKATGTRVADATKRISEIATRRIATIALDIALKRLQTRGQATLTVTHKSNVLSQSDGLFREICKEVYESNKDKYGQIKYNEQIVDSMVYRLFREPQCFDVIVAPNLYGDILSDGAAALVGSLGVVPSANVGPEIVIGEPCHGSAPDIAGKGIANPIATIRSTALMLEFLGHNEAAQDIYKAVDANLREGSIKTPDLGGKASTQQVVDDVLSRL

Row | SMILES | Ki [1] [µM] | Ki [2] [µM]
1 | O=C(O)CC/C=C(\C(=O)O)[C@@H](O)C(=O)O | 260 | 72
2 | O=C(O)CC/C=C(/C(=O)O)[C@@H](O)C(=O)O | 3100 | 790
3 | O=C(O)/C(=C/CCO)[C@@H](O)C(=O)O | 5200 | 1400

The remaining molecules from weak to strong by Ki [1], led by results:

Row | Ki [1] [µM] | Ki [2] [µM] | SMILES
4 | 15300 | 510 | O=C(O)/C(=C\CCO)[C@@H](O)C(=O)O
5 | 88 | – | C=C[C@H](C(=O)O)[C@@H](O)C(=O)O
